Data: US7485455B2, “Nucleic acid encoding sodium channel subunit” (Wisconsin Alumni Research Foundation, priority 2002, dated 2009)

Tested on: untransfected HEK cells (endogenous currents)
Conditions: incubation with mexiletine 100 μM for 24 hours, n=10, not significantly increased

Cc1cccc(C)c1OCC(C)N (stereo not shown) [mexiletine]
endogenous current density: 1.1±0.4 pA/pF
